We go through four molecules from patent US3988308A, “(Tyr^3, Tyr^14)-SRIF and intermediates” (American Home Products Corporation, priority 1974, dated 1976).

No end group written: not given here.

One assay relates to growth hormone (GH). The following applies: background; Brazeau et al., Science 179 (1973); U.S. Pat. No. 3,842,066; cited from earlier work.
The next assay concerns growth hormone. The assay can be described thus: in vivo activity: plasma growth hormone by radioimmunoassay in nembutal-treated rats. The following applies: 500 μg in PEG 400/water (1 ml) injected; rats 200-240 g; nembutal 50 mg/kg i.p. at 1 h 40 min; killed 20 min later; 19 treated rats; control average 117.9 ± 13.6. The protocol:
(§1) The growth hormone inhibiting activity of the compound of Example 3 was determined by radioimmunoassay in a rat pituitary cell culture system as described by Vale et al, Endocrinology 91, pp 562 (1972) and Grant et al, Biochemical and Biophysical Research Communications 51, pp 100-106 (1973). The compound of Example 3 was tested at 10 ng/ml, 100 ng/ml and 1000ng/ml and was active at these concentrations in inhibiting growth hormone release. The in vivo activity of the compound of Example 3 was determined by dissolving 500 μg of this compound in a mixture of polyethylene glycol (PEG 400) and water (1 ml) and the mixture was injected in rats weighing 200-240 g. Control rats were injected with 80% PEG 400. One hour and forty minutes later the rats were injected i.p. with nembutal at 50 mg/kg. Twenty minutes after the nembutal injection the rats were killed and their blood plasmas were assayed for growth hormone by radioimmunoassay.
The average of 19 treated rats was 80.1 ± 9.0 × 10^-^9 g GH/ml and the average of 11 control rats was 117.9 ± 13.6 × 10^^-9 g GH/ml.

In assay [1] the test system is growth hormone release in rat pituitary cell culture. The assay can be described thus: growth hormone inhibiting activity by radioimmunoassay in a rat pituitary cell culture system. The following applies: tested at 10 ng/ml, 100 ng/ml and 1000ng/ml. Format: cell-based. The protocol:
as §1

`C[C@H](N)C(=O)NCC(=O)N[C@H]1CSSC[C@@H](C(=O)O)NC(=O)[C@H](CO)NC(=O)[C@H]([C@@H](C)O)NC(=O)[C@H](Cc2ccccc2)NC(=O)[C@H]([C@@H](C)O)NC(=O)[C@H](CCCCN)NC(=O)[C@H](Cc2c[nH]c3ccccc23)NC(=O)[C@H](Cc2ccccc2)NC(=O)[C@H](Cc2ccccc2)NC(=O)[C@H](CC(N)=O)NC(=O)[C@H](CCCCN)NC1=O` [Somatostatin]: the “inhibition of secretion/release of growth hormone (somatotropin)” value in the assay with growth hormone (GH) is recorded as “inhibit the secretion of the hormone somatotropin”.

Consider “(Ala^3,Ala^14)-SRIF: somatostatin analog described in U.S. Pat. No. 3,842,066 (AGAKNFFWKTFTSA; Somatostatin-14; UniProt P61278 103-116, looked up, variant C3A C14A)”, for which, in the assay with growth hormone (GH), the “inhibition of secretion/release of growth hormone (somatotropin)” value is on record as “inhibiting the release of growth hormone”.

For “AGYKNFFWKTFTSY [Example 3, L-alanylglycyl-L-tyrosyl-L-lysyl-L-asparaginyl-L-phenylalanyl-L-phenylalanyl-L-tryptophyl-L-lysyl-L-threonyl-L-phenylalanyl-L-threonyl-L-seryl-L-tyrosine]”, the “blood plasma growth hormone, average of treated rats” value in the assay on growth hormone is reported as 80.1 ± 9.0 × 10^-9 g GH/ml. The “inhibiting growth hormone release” value in assay [1] is reported as “active”.

“H-Ala-Gly-Cys-Lys-Asn-Phe-Phe-Trp-Lys-Thr-Phe-Thr-Ser-Cys-OH (H-AGCKNFFWKTFTSC-OH; ends and bridges not checked) [linear form of somatostatin, synthesized by solid phase methodology]”: the “inhibition of secretion/release of growth hormone (somatotropin)” value in the assay with growth hormone (GH) is reported as “same biological activity as the somatostatin obtained from a natural source”.
